Measured values: patent publication US20240307427A1 (priority 2023, published 2024)
In brackets after ≈: the same amount, converted by molar mass. Like-named read-outs stand apart in the source and are kept apart here.

What was measured:
SARS-COV-2 = conditions: in vitro, human precision-cut lung slices; cited from earlier work
[1] = cited from earlier work
A549 cells = assay: MTT cell viability assay; conditions: 24 hours, 0.05 to 10 μM
Protocol: A549 cells were cultured in DMEM/F12 medium supplemented with 10% (v/v) FBS and 1% (v/v) antibiotic-antimycotic at 37° C. in a humidified incubator with 5% CO2. On the day prior to treatment addition, approximately 2×10^4 cells/well were seeded into 96-well plates and incubated overnight. […] Upon the treatment, the cells were incubated with 200 μL of MTT reagent (0.8 mg/mL) for 3 hours at 37° C. 100 μL of isopropyl alcohol was then added to each well to solubilize the formazan dye crystals and the absorbance at 570 nm was measured using a microplate spectrophotometer (Thermo Scientific™ Multiskan™ GO, Thermo-Fisher, Waltham, MA, USA). Cell viability (%) was calculated by dividing the absorbance of treated cells by the absorbance of cells from the control group with equivalent concentration of DMSO as the treatment group. Six replicates were made for each concentration and the whole MTT assay was repeated in triplicate.

[2] = Equilibrium solubility measurement in organic solvents; assay type: physicochemical; conditions: 25 °C, organic solvent or mixture, thermodynamic from solid
Protocol: 10 μL samples were injected onto the column.
Samples were filtered through 0.45 μm membrane filters, followed by dilution to appropriate concentrations for the HPLC assay.

[3] = intravenous doses, healthy subjects, cited from earlier work
[4] = deposited dose 0.35 mg/kg by inhalation vs 10 mg/kg intravenous, African green monkeys; cited from earlier work
[5] = In-vitro drug release study in pH 7.4 simulated lung fluid; assay type: physicochemical; conditions: 20 mL pH 7.4 SLF3, 37° C., 75 rpm, LAG cocrystal <63 μm, n=3
[6] = pH determination during dissolution in simulated lung fluid; assay type: physicochemical; conditions: equimolar amount (0.017 mol) in 20 mL SLF, initial pH 7.4, 37° C.
Protocol: The solution containing the samples was stirred at 75 rpm with a magnetic bar at 37° C., followed by in situ pH measurement at designated time points, i.e., 2 s, 5 s, 10 s, 15 s, 30 s, 45 s, 1 min, 1.5 min, 2 min, 3 min, 5 min, and 10 min, using a pH meter (Lab 850, Schott Instruments, United Kingdom).

CC(=O)Oc1ccccc1C(=O)O [ASA, acetylsalicylic acid]
SARS-COV-2 viral replication (SARS-COV-2): inhibit SARS-COV-2 viral replication

CCC(CC)COC(=O)[C@H](C)N[P@](=O)(OC[C@H]1O[C@@](C#N)(c2ccc3c(N)ncnn23)[C@H](O)[C@@H]1O)Oc1ccccc1 [RDV, Remdesivir]
aqueous solubility ([1]; background statement): < 0.03 mg/mL
solubility in water ([1]; water at 25° C.): 0.028 mg/mL (≈ 0.0465 mM)
cell viability (A549 cells): around 100%
solubility at 72 h ([2]; Acetone): 66.4 ± 5.34 mg/mL (≈ 110 mM)
solubility at 72 h ([2]; Acetonitrile): 5.68 ± 0.6 mg/mL (≈ 9.43 mM)
solubility at 72 h ([2]; Chloroform): 3.86 ± 0.3 mg/mL (≈ 6.41 mM)
solubility at 72 h ([2]; Ethanol): 34.2 ± 2.29 mg/mL (≈ 56.7 mM)
solubility at 72 h ([2]; Methanol): 191 ± 13.3 mg/mL (≈ 317 mM)
highest plasma concentration of RDV observed [3]: 4420 ng/mL
highest plasma concentration of RDV observed ([3]; converted value): ~7.8 µM
lung RDV triphosphate levels, inhaled vs intravenous [4]: similar

CCC(CC)COC(=O)C(C)NP(=O)(OCC1OC(C#N)(c2ccc3c(N)ncnn23)C(O)C1O)Oc1ccccc1.O=C(O)c1ccccc1O (stereo not drawn) [RDV−SA, cocrystal of remdesivir and salicylic acid]
RDV dissolved at 120 min [5]: 71.22%
medium pH at end point of dissolution (10 min) [6]: 7.41±0.01
cell viability (A549 cells): around 100%

O=C(O)c1ccccc1O [SA, Salicylic acid]
medium pH at end point of dissolution (10 min) [6]: 7.35±0.03
medium pH in 2 seconds (transient drop) [6]: 6.89±0.02
SARS-COV-2 viral replication (SARS-COV-2): inhibit SARS-COV-2 viral replication
